Reference: US20210395210A1, “INHIBITION OF BACTERIAL CHAPERONIN SYSTEMS” (THE TRUSTEES OF INDIANA UNIVERSITY, priority 2018, published 2021)
Like-named read-outs stand apart in the source and are kept apart here.

Columns and labels:
human HSP60/10 = molecular target: T1, human HSP60/10 (Homo sapiens, UniProt P10809); assay: HSP60/10-mediated dMDH refolding assay; assay type: biochemical
T1 construct: octa-Histidine tag (TEV-cleavable) (N, cleaved yes); made in house; host or cells: HSP60 in E. coli Rosetta 2 (DE3); HSP10 in Rosetta 2 (DE3) pLysS
T1 sequence (P10809 27-573): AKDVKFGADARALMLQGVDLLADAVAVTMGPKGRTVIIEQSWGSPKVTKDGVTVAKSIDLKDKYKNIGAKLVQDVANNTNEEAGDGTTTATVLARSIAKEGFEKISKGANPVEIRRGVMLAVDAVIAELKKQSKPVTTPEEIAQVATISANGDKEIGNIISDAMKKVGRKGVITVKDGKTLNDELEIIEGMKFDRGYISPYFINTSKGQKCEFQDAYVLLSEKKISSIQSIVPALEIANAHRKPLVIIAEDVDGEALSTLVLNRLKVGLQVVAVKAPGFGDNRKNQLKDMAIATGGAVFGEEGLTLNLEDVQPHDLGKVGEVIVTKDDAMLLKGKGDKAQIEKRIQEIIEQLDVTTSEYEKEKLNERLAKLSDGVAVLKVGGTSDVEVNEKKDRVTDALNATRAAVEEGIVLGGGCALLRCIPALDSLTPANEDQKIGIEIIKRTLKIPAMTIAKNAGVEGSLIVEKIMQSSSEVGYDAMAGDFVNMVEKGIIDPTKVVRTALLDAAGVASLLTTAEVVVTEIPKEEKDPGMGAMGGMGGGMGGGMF
Summary of the method: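 Preformed HSP60/10 (or GroEL/ES) complex with guanidine-denatured pig heart MDH was started with ATP (during refolding: 50 nM HSP60, 60 nM HSP10, 12 nM dMDH, 1 mM ATP; compounds 100 μM to 46 nM) at 37° C, then EDTA-quenched. Refolded MDH activity read as A340 NADH consumption with mesoxalate.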

[1] = test system: Drug sensitive Staphylococcus aureus (ATCC 25923); assay: Bacterial proliferation assay, drug sensitive S. aureus; assay type: cell-based
Summary of the method: (§1)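 Cultures in BHI broth with 25 mg/L Ca2+ and 12.5 mg/L Mg2+ were diluted to OD600 0.017 and exposed to compounds in 384-well plates at 37 °C without shaking. OD600 was read at 6-8 h (S. aureus, E. cloacae, P. aeruginosa) or 24 h (A. baumannii). EC50 values were averaged over quadruplicates.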

[2] = test system: Pseudomonas aeruginosa (ATCC 10145); assay: Bacterial proliferation assay, P. aeruginosa; assay type: cell-based
Summary of the method: as §1

[3] = test system: Enterobacter cloacae (ATCC 13047); assay: Bacterial proliferation assay, E. cloacae; assay type: cell-based
Summary of the method: as §1

[4] = human HSP60/10-dMDH refolding assay, read-out: HSP60/10-dMDH Refolding IC50
[5] = log(IC50) ± standard deviation, human HSP60/10-dMDH refolding assay, read-out: HSP60/10-dMDH Refolding Assay log(IC50) (converted)
[6] = ATCC25923, OD600 at 6-8 h, read-out: Bacterial Proliferation EC50 S. aureus Sensitive
[7] = ATCC25923, log of EC50 (μM scale), with standard deviation, read-out: log(EC50) Bacterial Proliferation Assay S. aureus Sensitive (converted)
[8] = ATCC10145, OD600 at 6-8 h, read-out: Bacterial Proliferation EC50 P. aeruginosa
[9] = ATCC10145, log of EC50 (μM scale), with standard deviation, read-out: log(EC50) Bacterial Proliferation Assay P. aeruginosa (converted)
[10] = ATCC13047, OD600 at 6-8 h, read-out: Bacterial Proliferation EC50 E. cloacae
[11] = ATCC13047, log of EC50 (μM scale), with standard deviation, read-out: log(EC50) Bacterial Proliferation Assay E. cloacae (converted)

Row | Structure (SMILES) | IC50 (human HSP60/10; [4]) [µM] | IC50 (human HSP60/10; [5]) [µM] | EC50 [1, 6] [µM] | EC50 [1, 7] [µM] | EC50 [2, 8] [µM] | EC50 [2, 9] [µM] | EC50 [3, 10] [µM] | EC50 [3, 11] [µM] | IC50 (human HSP60/10) [µM] | HSP60/10-dMDH Refolding Assay log(IC50) (human HSP60/10; log(IC50) ± standard deviation, human HSP60/10-dMDH refolding assay) | EC50 ([1]; ATCC25923, read-out: Bacterial Proliferation EC50 S. aureus Sensitive) [µM] | EC50 ([1]; ATCC25923, read-out: S. aureus Proliferation & Biofilm Assay EC50 Planktonic Growth) [µM] | EC50 ([1]; ATCC25923, read-out: log(EC50) Bacterial Proliferation Assay S. aureus Sensitive (converted)) [µM] | EC50 ([2]; ATCC10145, read-out: Bacterial Proliferation EC50 P. aeruginosa) [µM] | EC50 ([2]; ATCC10145, read-out: log(EC50) Bacterial Proliferation Assay P. aeruginosa (converted)) [µM] | EC50 ([3]; ATCC13047, read-out: Bacterial Proliferation EC50 E. cloacae) [µM] | EC50 ([3]; ATCC13047, read-out: log(EC50) Bacterial Proliferation Assay E. cloacae (converted)) [µM]
1 | COc1c(Br)cc(Br)cc1C(=O)Nc1ccccc1 [Compound 41, 3,5-Dibromo-2-methoxy-N-phenylbenzamide] | > 100 | > 100 | > 100 | > 100 | > 100 | > 100 | > 100 | > 100 |  |  |  |  |  |  |  |  | 
2 | COc1c(Br)cccc1C(=O)Nc1ccccc1 [Compound 42, 3-Bromo-2-methoxy-N-phenylbenzamide] | > 100 | > 100 | > 100 | > 100 | > 100 | > 100 | > 100 | > 100 |  |  |  |  |  |  |  |  | 
3 | COc1ccc(Br)cc1C(=O)Nc1ccccc1 [Compound 43, 5-Bromo-2-methoxy-N-phenylbenzamide] | > 100 | > 100 | > 100 | > 100 | > 100 | > 100 | > 100 | > 100 |  |  |  |  |  |  |  |  | 
4 | COc1ccccc1C(=O)Nc1ccccc1 [Compound 44, 2-Methoxy-N-phenylbenzamide] | > 100 | > 100 | > 100 | > 100 | > 100 | > 100 | > 100 | > 100 |  |  |  |  |  |  |  |  | 
5 | CO[C@H]1/C=C/O[C@@]2(C)Oc3c(C)c(O)c4c(O)c(c(/C=N/N5CCN(C)CC5)c(O)c4c3C2=O)NC(=O)/C(C)=C\C=C\[C@H](C)[C@H](O)[C@@H](C)[C@@H](O)[C@@H](C)[C@H](OC(C)=O)[C@@H]1C [Rifampicin, rifampicin, reference compound] | > 100 | > 100 | < 0.05 | < 0.0501 | 7.8 | 7.76 | 8.8 | 8.71 |  |  |  |  |  |  |  |  | 
6 | CN[C@H](CC(C)C)C(=O)N[C@H]1C(=O)N[C@@H](CC(N)=O)C(=O)N[C@H]2C(=O)N[C@H]3C(=O)N[C@H](C(=O)N[C@H](C(=O)O)c4cc(O)cc(O)c4-c4cc3ccc4O)[C@H](O)c3ccc(c(Cl)c3)Oc3cc2cc(c3O[C@@H]2O[C@H](CO)[C@@H](O)[C@H](O)[C@H]2O[C@H]2C[C@](C)(N)[C@H](O)[C@H](C)O2)Oc2ccc(cc2Cl)[C@H]1O [Vancomycin, vancomycin, reference compound] |  |  |  |  |  |  |  |  | > 100 | >2 | 0.67 | 0.67 | 0.661 | > 100 | > 100 | > 100 | > 100
